The structures appear in SMILES notation.

Here are results for two compounds from US5219879A, “Heterocyclic steroid compounds” (Du Pont Merck Pharmaceutical Company, priority 1991, dated 1993).

Experiment [1] can be described thus: Lowering Blood Cholesterol Levels in Hamsters. The settings on record: 0.2% (w/w) in feed, 7 days; means ± SEM; N = 10; pair-fed control 133.0 ± 4.0 (N = 20). The class given is in vivo, Male Golden Syrian hamsters. Here is the method:
Male Golden Syrian hamsters (50-60 grams) were obtained from Charles River, Inc. (Wilmington, Mass.).
Animals were housed in individual suspension cages and were maintained on a light cycle consisting of 12 hours of light followed by 12 hours of dark. Animals were allowed free access to water and feed (Agway ground chow, RMH 3200, Agway, Syracuse, N.Y.) containing 1% (w/w) corn oil) for a minimum of 4 weeks.
Following this stabilization period a sample of blood was collected by orbital sinus bleeding under light ether anesthesia into heparinized capillary tubes. Plasma was separated by centrifugation (600×g for 10 minutes) and plasma cholesterols were determined by an autoanalyzer (Centrifichem 600, Baker Instruments, Allentown, Pa.). Based upon measured plasma cholesterol values, the animals were randomized into two groups such that the mean plasma cholesterol values were identical for both groups.
Animals in the two groups were then placed on one of two diets: (1) Diet A, consisting of ground chow plus 1% (w/w) corn oil, as described above; or (2) Diet B, consisting of Diet A plus 0.2% (w/w) of a test compound. Animals on Diet B, the treated animals, were allowed free access to feed and water, while animals on Diet A were pair-matched with Diet B animals and served as pair-fed controls. […] Total plasma cholesterol levels were determined as described above. […]

Experiment [2] relates to 3-Hydroxy-3-Methylglutaryl Coenzyme A Reductase (HMGR). The experiment in a line: 3-Hydroxy-3-Methylglutaryl Coenzyme A Reductase (HMGR) Suppression Assay. The settings on record: CHO cells, 6 hr. at 37°; read-out: IC50 (amount of compound required to suppress HMGR activity by 50% relative to controls). The format is cell-based, Chinese Hamster (CHO cells).
Experimental: The ability of the compounds of Formula I to suppress the activity of HMGR, the rate limiting enzyme of cholesterol biosynthesis, was tested as follows.
Chinese Hamster Ovary (CHO) cells were divided twice weekly and were maintained in McCoy's 5A medium supplemented with 1% carbosil delipidated Fetal Bovine System (FBS) (obtained from Gibco Laboratories, Chagrin Falls, Ohio). Cells were harvested during the logarithmic phase of growth and cell cultures were prepared by adding […] cells to each well in a 24 well cluster dish (obtained from Costar, Data Packaging Corp., Cambridge, Mass.) employing 1 ml of the above medium per each well. […] Control cells were treated in an identical fashion to those which received test compound, except they were incubated with the BSA and ethanol suspension only.
Specifically, the medium in each well was aspirated and the cells rinsed with a 50 mM solution of phosphate buffered saline (PBS). One ml of 30 mg/ml of digitonin in CSK buffer (prepared using 10 mM Pipes [piperazine-N,N'-bis (2-ethansulfonic) acid], 100 mM KCl, 2.5 mM MgCl2, 300 mM sucrose, 1 mM EGTA, pH 6.8) was added to each well and incubated for 10 min. at 22° to permeabilize the cells. The buffer was carefully aspirated and the wells were rinsed twice each time with 1 ml of PBS. HMGR activity was measured directly by adding 75 ml of PIB buffer (50 mM potassium phosphate, 1 mM Na2 EDTA, 10 mM dithiothreitol, pH 7.4) to each well and incubating the cells for 30 minutes at 37° as described above. […] The assay mixture was incubated for 30 min. at 37° and terminated by the addition of 70 ml of [^3 H]-mevalonicacid (35,000 DPM/assay), 0.15 mg/ml in 3N HCl.
The reaction was left to lactonize for an additional 30 min. at 37° or overnight at room temperature.
Reaction products were separated by thin layer chromatography on silica gel G (obtained from Analtech, Newark, Del.) developed in an unsaturated environment with acetone:benzene (3:2, v:v). The band corresponding to mevalonolactone was identified by exposure to iodine vapor and was scraped into counting vials. The extent of conversion of starting substrate, HMG-CoA, to mevalonic acid was determined by liquid scintillation counting in Biofluor (obtained from New England Nuclear, Boston, Mass.). Corrections for recovery and blank values were made for each sample. Protein determinations were made by Bio-Rad (Bio-Rad, Richmond, Calif.) dye binding assay according to the manufacturer's instruction using bovine serum albumin as standard. Cellular protein was solubilized from culture dishes by the addition of 20 μl of 16N KOH and assayed directly for protein amount. Suppression values are expressed as the amount of compound required to suppress HMGR activity by 50% relative to that of the controls.
The subject of experiment [3] is Botrytis cinerea. Nature of the experiment: Example K: cucumber grey mold on cucumber seedlings. The settings on record: 200 ppm, 100 = 100% disease control. The format is in vivo. Here is the method:
(§1) The test compounds were dissolved in acetone in an amount equal to 6% of the final volume and then suspended at a concentration of 200 ppm in purified water containing 250 ppm of the surfactant TREM 014 (polyhydric alcohol esters). This suspension was sprayed to the point of run-off on cucumber seedlings. The following day plants were inoculated with a spore suspension of Botrytis cinerea, the causal agent of cucumber grey mold, and incubated in a saturated humidity chamber at 20° C. for 4 days when disease ratings were made. […] A dashed entry indicates the specified test was not performed.

Another experiment concerns Puccinia recondita. The experiment in a line: Example G: wheat leaf rust on wheat seedlings. The class given is in vivo. The settings on record: 220 ppm, 100 = 100% disease control. On the procedure: as §1, with “220” for “200”, “wheat” for “cucumber”, “Puccinia recondita,” for “Botrytis cinerea,”, “wheat leaf rust,” for “cucumber grey mold,”, “48 hours and then in a growth chamber at 20° C. for 8 days,” for “4 days”

A further experiment deals with Pyricularia oryzae. The class given is in vivo. The settings on record: rice seedlings, 200 ppm; 100 = 100% disease control.
For a further experiment, the system named is Phytophthora infestans. The class given is in vivo. The settings on record: tomato seedlings, 200 ppm; 100 = 100% disease control.
In a further experiment the test system is peanut seedlings. The experiment in a line: Example B: plant disease control on peanut seedlings. The settings on record: 200 ppm, 100 = 100% disease control. The class given is in vivo. On the procedure: The test compounds were dissolved in acetone in an amount equal to 6% of the final volume and then suspended at a concentration of 200 ppm in purified water containing 250 ppm of the surfactant TREM […] (polyhydric alcohol esters). This suspension was sprayed to the point of run-off on peanut seedlings. The following day plants were incubated in a saturated humidity chamber at 22° C. for 24 hours, then in a high humidity chamber at 27° C. for 7 days, and then in a growth chamber at 29° C. for 7 days, when disease ratings were made.
In this table, a rating of 100 indicated 100% disease control, and a rating of 0 indicates no disease control relative to untreated plants that were inoculated and incubated as described in each Example. A dashed entry indicates the specified test was not performed.

The test system of experiment [4] is Ersiphe graminis f. sp. tritici. Nature of the experiment: Example D: wheat powdery mildew on wheat seedlings. The settings on record: 200 ppm, 100 = 100% disease control. The class given is in vivo. Here is the method: The test compounds were dissolved in acetone in an amount equal to 6% of the final volume and then suspended at a concentration of 200 ppm in purified water containing 250 ppm of the surfactant TREM 014 (polyhydric alcohol esters). This suspension was sprayed to the point of run-off on wheat seedlings. […] A dashed entry indicates the specified test was not performed.

The next experiment relates to Rhizoctonia solani. Nature of the experiment: Example F: rice sheath blight on rice seedlings. The class given is in vivo. The settings on record: 220 ppm, 0 = no disease control, 100 = 100% disease control. On the procedure:
The test compounds were dissolved in acetone in an amount equal to 6% of the final volume and then suspended at a concentration of 220 ppm in purified water containing 250 ppm of the surfactant TREM 014 (polyhydric alcohol esters). This suspension was sprayed to the point of run-off on rice seedlings. The following day plants were inoculated with a mycelial suspension of Rhizoctonia solani, the causal agent of rice sheath blight, and incubated in a saturated humidity chamber at 27° C. for 48 hours and then in a growth chamber at 29° C. for 4 days, when disease ratings were made. […] A dashed entry indicates the specified test was not performed.

Experiment [5] has as its system Botrytis cinerea. The experiment in a line: Example J: grape grey mold on grape seedlings. The class given is in vivo. The settings on record: 200 ppm, 100 = 100% disease control. Here is the method:
(§2) The test compounds were dissolved in acetone in an amount equal to 6% of the final volume and then suspended at a concentration of 200 ppm in purified water containing 250 ppm of the surfactant TREM 014 (polyhydric alcohol esters). This suspension was sprayed to the point of run-off on grape seedlings. The following day plants were inoculated with a spore suspension of Botrytis cinerea, the causal agent of grape grey mold, and incubated in a saturated humidity chamber at 20° C. for 96 hours when disease ratings were made. […] A dashed entry indicates the specified test was not performed.

A further experiment relates to Venturia inaequalis. The experiment in a line: Example A: apple scab on apple seedlings. The settings on record: 200 ppm, sprayed the day before inoculation, 100 = 100% disease control. The format is in vivo. On the procedure:
as §2, with “apple” for “grape”, “Venturia inaequalis,” for “Botrytis cinerea,”, “casual” for “causal”, “apple scab,” for “grape grey mold,”, “24” for “96”, “hours and then in a growth chamber at 22° C. for 11 days,” for “hours”

For the next experiment, the system named is Botyrtis cinerea. The experiment in a line: Example C: bean grey mold on broad bean seedlings. The format is in vivo. The settings on record: 200 ppm, 100 = 100% disease control. Here is the method:
The test compounds were dissolved in acetone in an amount equal to 6% of the final volume and then suspended at a concentration of 200 ppm in purified water containing 250 ppm of the surfactant TREM […] (polyhydric alcohol esters). This suspension was sprayed to the point of run-off on broad bean seedlings. The following day plants were inoculated with a spore suspension of Botyrtis cinerea, the causal agent of bean grey mold, and incubated in a saturated humidity chamber at 20° C. for 24 hours when disease ratings were made. […] A dashed entry indicates the specified test was not performed.

The next experiment has as its system Plasmopara victicola. The experiment in a line: Example I: grape downy mildew on grape seedlings. The format is in vivo. The settings on record: 200 ppm, 100 = 100% disease control. On the procedure:
as §2, with “Plasmopara victicola,” for “Botrytis cinerea,”, “downy mildew,” for “grey mold,”, “24” for “96”, “hours and then in a growth chamber at 20° C. for 7 days, and then held in a saturated humidity chamber at 20° C. for 24 hours,” for “hours”

As for `CC(C)CCC[C@@H](C)[C@H]1CO[C@@]2(C)C3=C(CC[C@]12C)[C@@]1(C)CC[C@H](O)C(C)(C)[C@@H]1CC3` [Example 1, 15-Oxa-dihydrolanosterol], the “Plasma Cholesterol, Treated” value in experiment [1] is reported as 120. ± 2.0 mg/dl. Moreover, in experiment [2], the IC50 was 180 nM.
As to `CC(C)CCC[C@@H](C)[C@H]1CN=C2C3=C(CC[C@@]21C)[C@@]1(C)CC[C@H](O)C[C@@H]1CC3` [Example 1818], the “disease control rating, Example K” value in the experiment on Botrytis cinerea [3] was determined as 100%. Further, the “disease control rating, Example G” value in the experiment with Puccinia recondita was 100%. In addition, in the experiment on Pyricularia oryzae, the “disease control rating, Example E” value is 6%. Also, in experiment [2], the half-inhibitory concentration (IC50) is 160 nM. Besides, the “disease control rating, Example H” value in the experiment on Phytophthora infestans is 94%. Further, in the experiment with peanut seedlings, the “disease control rating, Example B” value was determined as 95%. In addition, in [4], the “disease control rating, Example D” value came out at 98%. In the experiment on Rhizoctonia solani, the “disease control rating, Example F” value came to 0%. In addition, in the experiment on Botrytis cinerea [5], the “disease control rating, Example J” value stood at 78%. The “disease control rating, Example A” value in the experiment with Venturia inaequalis came out at 99%. The “disease control rating, Example C” value with Botyrtis cinerea is 95%. Moreover, the “disease control rating, Example I” value in the experiment with Plasmopara victicola stood at 100%.
